Patent US6809065B2, “Herbicide containing substituted pyrazole derivative as active ingredient” (SDS Biotech K.K., priority 2001, dated 2004)

Tests used:
[1] = test system: rice (Oryza sative, variety: Koshihikari); experiment: Paddy field treatment (Test Example 3), crop; format: in vivo, Oryza sativa; conditions: transplanted rice two-leaf period, water surface treatment 10th day after transplantation, 1 kg active ingredient per hectare, evaluated 21st day, lower index = higher safety
Protocol: (§1) In the above evaluation criteria, the term “herbicidal effect” means evaluation to the objective weeds, and a higher index of the evaluation criteria means higher herbicidal effect on the objective weeds. On the other hand, a lower index of the evaluation criteria for the crops means higher safety to the crops. A plastic pot of 130 cm^2 was filled with paddy soil, and soil puddling was carried out to adjust the submerged depth to 4 cm. Then, seeds of Echinochloa crusgalli, Monochoria vaginalis, Ammannia multiflora and Scirpus juncoides were sowed, and rice (Oryza […], variety: Koshihikari) of two-leaf period was transplanted by 2 rice plants of 1 stub per pot at a depth of 3 cm. On the 10th day after the transplantation, a wettable powder composition was prepared in accordance with Formulation Example 1, diluted with water in such an amount that the amount of the active ingredient became 1 kg per hectare, and then dropped to diffuse on the water surface. On the 21st day after the dropping, observation and evaluation were carried out according to the aforesaid criteria.

Digitaria adscendens [2] = experiment: Upland field foliage treatment (Test Example 1); format: in vivo; conditions: foliage treatment 14th day after sowing, wettable powder, 1 kg active ingredient per hectare, evaluated 21st day after application
Source text: (§2) In the above evaluation criteria, the term “herbicidal effect” means evaluation to the objective weeds, and a higher index of the evaluation criteria means higher herbicidal effect on the objective weeds. On the other hand, a lower index of the evaluation criteria for the crops means higher safety to the crops. A plastic pot of 130 cm^2 was filled with upland soil. Then, seeds of weeds, namely, Setaria viridis, Digitaria adscendens, Chenopodium album and Stellaria media, and seeds of crops, namely, soybean (Glycine max) and wheat (Triticum aestivum), were sowed and covered with soil of about 1 cm thick. On the 14th day after the sowing, a wettable powder composition was prepared in accordance with Formulation Example 1, diluted with water in such an amount that the amount of the active ingredient became 1 kg per hectare, and then uniformly applied to the plant leaf surfaces. On the 21st day after the application, observation and evaluation were carried out according to the aforesaid criteria.

Setaria viridis [3] = experiment: Upland field foliage treatment (Test Example 1); format: in vivo; conditions: foliage treatment 14th day after sowing, wettable powder, 1 kg active ingredient per hectare, evaluated 21st day after application
Source text: as §2

Stellaria media [4] = experiment: Upland field foliage treatment (Test Example 1); format: in vivo; conditions: foliage treatment 14th day after sowing, wettable powder, 1 kg active ingredient per hectare, evaluated 21st day after application
Source text: as §2

Chenopodium album [5] = experiment: Upland field foliage treatment (Test Example 1); format: in vivo; conditions: foliage treatment 14th day after sowing, wettable powder, 1 kg active ingredient per hectare, evaluated 21st day after application
Source text: as §2

[6] = test system: wheat (Triticum aestivum); experiment: Upland soil treatment (Test Example 2), crop; format: in vivo; conditions: soil surface treatment next day after sowing, 1 kg active ingredient per hectare, evaluated 21st day, lower index = higher safety
Source text: (§3) In the above evaluation criteria, the term “herbicidal effect” means evaluation to the objective weeds, and a higher index of the evaluation criteria means higher herbicidal effect on the objective weeds. On the other hand, a lower index of the evaluation criteria for the crops means higher safety to the crops. A plastic pot of 130 cm^2 was filled with upland soil. Then, seeds of weeds, namely, Setaria viridis, Digitaria adscendens, Chenopodium album and Stellaria media, and seeds of crops, namely, soybean (Glycine max) and wheat (Triticum aestivum), were sowed and covered with soil of about 1 cm thick. On the next day after the sowing, a wettable powder composition was prepared in accordance with Formulation Example 1, diluted with water in such an amount that the amount of the active ingredient became 1 kg per hectare, and then uniformly applied to the soil surface. On the 21st day after the application, observation and evaluation were carried out according to the aforesaid criteria.

soybean (Glycine max) [7] = experiment: Upland soil treatment (Test Example 2), crop; format: in vivo; conditions: soil surface treatment next day after sowing, 1 kg active ingredient per hectare, evaluated 21st day, lower index = higher safety
Source text: as §3

Echinochloa spp. = experiment: Paddy field treatment (Test Example 3); format: in vivo, Echinochloa crusgalli; conditions: paddy pot, submerged 4 cm, dropped on water surface 10th day after transplantation, 1 kg active ingredient per hectare, evaluated 21st day
Protocol: as §1

Ammannia multiflora = experiment: Paddy field treatment (Test Example 3); format: in vivo; conditions: paddy pot, submerged 4 cm, dropped on water surface 10th day after transplantation, 1 kg active ingredient per hectare, evaluated 21st day
Protocol: as §1

Scirpus juncoides = experiment: Paddy field treatment (Test Example 3); format: in vivo; conditions: paddy pot, submerged 4 cm, dropped on water surface 10th day after transplantation, 1 kg active ingredient per hectare, evaluated 21st day
Protocol: as §1

Monochoria vaginalis = experiment: Paddy field treatment (Test Example 3); format: in vivo; conditions: paddy pot, submerged 4 cm, dropped on water surface 10th day after transplantation, 1 kg active ingredient per hectare, evaluated 21st day
Protocol: as §1

Digitaria adscendens [8] = experiment: Upland soil treatment (Test Example 2); format: in vivo; conditions: soil surface treatment next day after sowing, wettable powder, 1 kg active ingredient per hectare, evaluated 21st day after application
Source text: as §3

Setaria viridis [9] = experiment: Upland soil treatment (Test Example 2); format: in vivo; conditions: soil surface treatment next day after sowing, wettable powder, 1 kg active ingredient per hectare, evaluated 21st day after application
Source text: as §3

Stellaria media [10] = experiment: Upland soil treatment (Test Example 2); format: in vivo; conditions: soil surface treatment next day after sowing, wettable powder, 1 kg active ingredient per hectare, evaluated 21st day after application
Source text: as §3

Chenopodium album [11] = experiment: Upland soil treatment (Test Example 2); format: in vivo; conditions: soil surface treatment next day after sowing, wettable powder, 1 kg active ingredient per hectare, evaluated 21st day after application
Source text: as §3

[12] = test system: wheat (Triticum aestivum); experiment: Upland field foliage treatment (Test Example 1), crop; format: in vivo; conditions: foliage treatment 14th day after sowing, 1 kg active ingredient per hectare, evaluated 21st day, lower index = higher safety
Source text: as §2

soybean (Glycine max) [13] = experiment: as above; format: in vivo; conditions: foliage treatment 14th day after sowing, 1 kg active ingredient per hectare, evaluated 21st day, lower index = higher safety
Source text: as §2

| Structure (SMILES) | Herbicidal activity Oryza sativa [1] | Herbicidal activity Digitaria adscendens (Digitaria adscendens [2]) | Herbicidal activity Setaria viridis (Setaria viridis [3]) | Herbicidal activity Stellaria media (Stellaria media [4]) | Herbicidal activity Chenopodium album (Chenopodium album [5]) | Herbicidal activity Triticum aestivum [6] | Herbicidal activity Glycine max (soybean (Glycine max) [7]) | Herbicidal activity Echinochloa spp. (Echinochloa spp.) | Herbicidal activity Ammannia multiflora (Ammannia multiflora) | Herbicidal activity Scirpus juncoides (Scirpus juncoides) | Herbicidal activity Monochoria vaginalis (Monochoria vaginalis) | Herbicidal activity Digitaria adscendens (Digitaria adscendens [8]) | Herbicidal activity Setaria viridis (Setaria viridis [9]) | Herbicidal activity Stellaria media (Stellaria media [10]) | Herbicidal activity Chenopodium album (Chenopodium album [11]) | Herbicidal activity Triticum aestivum [12] | Herbicidal activity Glycine max (soybean (Glycine max) [13]) |
| --- | --- | --- | --- | --- | --- | --- | --- | --- | --- | --- | --- | --- | --- | --- | --- | --- | --- |
| COC=C(Cn1nc(-c2ccc(Cl)cc2Cl)cc1C)C(=O)OC [Compound 7] | 0 (herbicidal effect of not less than 0% by weight and less than 10% by weight) | 4 (herbicidal effect of not less than 70% by weight and less than 90% by weight) | 4 (herbicidal effect of not less than 70% by weight and less than 90% by weight) | 5 (herbicidal effect of not less than 90% by weight) | 5 (herbicidal effect of not less than 90% by weight) | 0 (herbicidal effect of not less than 0% by weight and less than 10% by weight) | 0 (herbicidal effect of not less than 0% by weight and less than 10% by weight) | 4 (herbicidal effect of not less than 70% by weight and less than 90% by weight) | 4 (herbicidal effect of not less than 70% by weight and less than 90% by weight) | 3 (herbicidal effect of not less than 50% by weight and less than 70% by weight) | 4 (herbicidal effect of not less than 70% by weight and less than 90% by weight) | 4 (herbicidal effect of not less than 70% by weight and less than 90% by weight) | 5 (herbicidal effect of not less than 90% by weight) | 4 (herbicidal effect of not less than 70% by weight and less than 90% by weight) | 4 (herbicidal effect of not less than 70% by weight and less than 90% by weight) | 0 (herbicidal effect of not less than 0% by weight and less than 10% by weight) | 0 (herbicidal effect of not less than 0% by weight and less than 10% by weight) |
| COC=C(Cn1nc(-c2ccccc2)cc1C)C(=O)OC [Compound 2] | 0 (herbicidal effect of not less than 0% by weight and less than 10% by weight) | 4 (herbicidal effect of not less than 70% by weight and less than 90% by weight) | 4 (herbicidal effect of not less than 70% by weight and less than 90% by weight) | 4 (herbicidal effect of not less than 70% by weight and less than 90% by weight) | 4 (herbicidal effect of not less than 70% by weight and less than 90% by weight) | 0 (herbicidal effect of not less than 0% by weight and less than 10% by weight) | 0 (herbicidal effect of not less than 0% by weight and less than 10% by weight) | 3 (herbicidal effect of not less than 50% by weight and less than 70% by weight) | 3 (herbicidal effect of not less than 50% by weight and less than 70% by weight) | 3 (herbicidal effect of not less than 50% by weight and less than 70% by weight) | 3 (herbicidal effect of not less than 50% by weight and less than 70% by weight) | 4 (herbicidal effect of not less than 70% by weight and less than 90% by weight) | 4 (herbicidal effect of not less than 70% by weight and less than 90% by weight) | 4 (herbicidal effect of not less than 70% by weight and less than 90% by weight) | 4 (herbicidal effect of not less than 70% by weight and less than 90% by weight) | 0 (herbicidal effect of not less than 0% by weight and less than 10% by weight) | 0 (herbicidal effect of not less than 0% by weight and less than 10% by weight) |
| COC=C(Cn1nc(-c2ccccc2Cl)c(Cl)c1C)C(=O)OC [Compound 18] | 1 (herbicidal effect of not less than 10% by weight and less than 30% by weight) | 5 (herbicidal effect of not less than 90% by weight) | 4 (herbicidal effect of not less than 70% by weight and less than 90% by weight) | 5 (herbicidal effect of not less than 90% by weight) | 5 (herbicidal effect of not less than 90% by weight) | 0 (herbicidal effect of not less than 0% by weight and less than 10% by weight) | 0 (herbicidal effect of not less than 0% by weight and less than 10% by weight) | 5 (herbicidal effect of not less than 90% by weight) | 5 (herbicidal effect of not less than 90% by weight) | 5 (herbicidal effect of not less than 90% by weight) | 5 (herbicidal effect of not less than 90% by weight) | 5 (herbicidal effect of not less than 90% by weight) | 4 (herbicidal effect of not less than 70% by weight and less than 90% by weight) | 5 (herbicidal effect of not less than 90% by weight) | 5 (herbicidal effect of not less than 90% by weight) | 0 (herbicidal effect of not less than 0% by weight and less than 10% by weight) | 0 (herbicidal effect of not less than 0% by weight and less than 10% by weight) |
| COC=C(Cn1nc(-c2cc(C)ccc2C)c(Br)c1C)C(=O)OC [Compound 28] | 1 (herbicidal effect of not less than 10% by weight and less than 30% by weight) | 4 (herbicidal effect of not less than 70% by weight and less than 90% by weight) | 4 (herbicidal effect of not less than 70% by weight and less than 90% by weight) | 5 (herbicidal effect of not less than 90% by weight) | 5 (herbicidal effect of not less than 90% by weight) | 0 (herbicidal effect of not less than 0% by weight and less than 10% by weight) | 0 (herbicidal effect of not less than 0% by weight and less than 10% by weight) | 5 (herbicidal effect of not less than 90% by weight) | 5 (herbicidal effect of not less than 90% by weight) | 5 (herbicidal effect of not less than 90% by weight) | 5 (herbicidal effect of not less than 90% by weight) | 4 (herbicidal effect of not less than 70% by weight and less than 90% by weight) | 4 (herbicidal effect of not less than 70% by weight and less than 90% by weight) | 4 (herbicidal effect of not less than 70% by weight and less than 90% by weight) | 4 (herbicidal effect of not less than 70% by weight and less than 90% by weight) | 0 (herbicidal effect of not less than 0% by weight and less than 10% by weight) | 0 (herbicidal effect of not less than 0% by weight and less than 10% by weight) |
